Experimental data as given in patent publication US9790233B2, “Compositions and methods of modulating 15-PGDH activity” (CASE WESTERN RESERVE UNIVERSITY, priority 2012, dated 2017).

How the values were obtained:
[1] = system: 15-PGDH-luciferase fusion reporter in V9m, LS174T and V503 cells; experiment: 15-PGDH-luciferase fusion gene reporter induction, stated for the three cell line backgrounds together; assay type: cell-based; details: V9m, LS174T, V503; FIG. 1
A549 cells [2] = experiment: PGE2 levels in the medium of IL1-beta stimulated A549 cells; assay type: cell-based;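 note: PGE2 in the collected culture medium quantified by enzyme immunoassay (ELISA), with data drawn from three independent experiments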
A549 cells [3] = experiment: Cellular toxicity on A549 cells (CellTiter-Glo); assay type: cell-based; details: 24 hours; concentrations of up to 10 uM
Hepatocyte stability = assay type: in vitro ADME
Method: Time to inhibition refers to the time needed to inhibit the generation of NADH by 15-PGDH from the moment with drug is added into the reaction mix. Delta Tm refers to the shift in melting temperature of recombinant 15-PGDH in the presence of drug (with cofactor NADH also present). Concentration of Full Cell Line Reporter Induction refers to the concentration of drug that needs to be added to reporter cell line to achieve maximal induction of the 15-PGDH-luciferase gene fusion reporter cassette, as measured by luciferase assays. Hepatocyte stability refers to the half-life of compound in the presence of hepatocytes in culture. Toxicity refers to the concentration of compound needed to decrease cell numbers in a cell culture assay.

15-PGDH mRNA = 15-PGDH mRNA levels by real-time PCR; assay type: cell-based
bone marrow = experiment: Bone marrow analysis of treated C57BL/6J mice; assay type: in vivo; details: IP 5 mg/kg or 20 mg/kg
Excerpt: FIGS. […] Experimental conditions are noted on the figure.

CD45.2 marked marrow = experiment: Competitive bone marrow transplant, blood chimerism; assay type: in vivo, C57BL/6J mice; details: donors 5 mg/kg IP daily for 3 doses; weeks 12 and 16
Method: On day 3 mice were sacrificed, marrow flushed and mixed at a 1:1 ratio with vehicle treated CD45.1 marrow. 2 million whole BM cells were injected into the tail vein of lethally irradiated CD45.1 mice and percent chimerism measured via flow cytometry at weeks 8, 12, 16.

[4] = Survival of irradiated mice receiving a bone marrow transplant; assay type: in vivo, C57BL/6J mice
Excerpt: The experimental design is depicted in FIG. 50.
Under the conditions of the mouse colony during this study, control mice receiving 100,000-500,000 cells are all dead between days 4-13 of study. […] Such activity would be of particular utility in settings, such as transplantation with umbilical cord stem cells, in which donor cell numbers are limited.

[5] = Survival after whole body irradiation; assay type: in vivo, C57BL/6J mice
liver = experiment: Liver regeneration after partial hepatectomy; assay type: in vivo, mice

## CCCC[S+]([O-])c1sc2nc(-c3cccs3)cc(-c3ccccc3)c2c1N (centres unmarked) [SW033291, 2-(butylsulfinyl)-4-phenyl-6-(thiophen-2-yl)thieno[2,3-b]pyridin-3-amine]
[1]
  luciferase activity of cells expressing 15-PGDH luciferase fusion construct: increase luciferase activity
A549 cells [2]; 100 nM drug, FIG. 44
  rank of PGE2 level in the medium: next highest level of PGE2
A549 cells [2]; IL1-beta 23 hours, compound added for the last 5 hours
  PGE2 levels in medium: clear inhibition of 15-PGDH activity
A549 cells [3]
  effect on CellTitre-Glo levels: No effect on CellTitre-Glo levels
Hepatocyte stability; Table 4
  Hepatocyte stability: Stable >
Hepatocyte stability; half-life in presence of hepatocytes in culture, Table 3
  Hepatocyte stability: Stable > couple
15-PGDH mRNA; V503 cells
  15-PGDH mRNA levels (real-time PCR): slight increase in 15-PGDH mRNA
15-PGDH mRNA; treated colon cancer cell lines
  15-PGDH mRNA levels (real-time PCR): do not in general alter 15-PGDH mRNA levels
Bone marrow
  percent of SKL cells: unchanged
CD45.2 marked marrow
  percent blood chimerism of CD45.2 marked cells: significantly increased
[4]; 1 × 10^5 donor marrow cells, Day 2
  number of surviving mice: 3
[4]; 1 × 10^5 donor marrow cells, Day 3
  number of surviving mice: 3
[4]; 1 × 10^5 donor marrow cells, Day 4
  number of surviving mice: 2
[4]; 1 × 10^5 donor marrow cells, Day 5
  number of surviving mice: 1
[4]; 1 × 10^5 donor marrow cells, Day 6
  number of surviving mice: 0
[4]; 2 × 10^5 donor marrow cells, Day 2
  number of surviving mice: 3
[4]; 2 × 10^5 donor marrow cells, Day 3
  number of surviving mice: 3
[4]; 2 × 10^5 donor marrow cells, Day 4
  number of surviving mice: 3
[4]; 2 × 10^5 donor marrow cells, Day 5
  number of surviving mice: 3
[4]; 2 × 10^5 donor marrow cells, Day 6
  number of surviving mice: 2
[4]; 2 × 10^5 donor marrow cells, Day 7
  number of surviving mice: 2
[4]; 2 × 10^5 donor marrow cells, Day 8
  number of surviving mice: 2
[4]; 2 × 10^5 donor marrow cells, Day 9
  number of surviving mice: 2
[4]; 2 × 10^5 donor marrow cells, Day 10
  number of surviving mice: 2
[4]; 2 × 10^5 donor marrow cells, Day 11
  number of surviving mice: 2
[4]; 2 × 10^5 donor marrow cells, Day 12
  number of surviving mice: 1
[4]; 2 × 10^5 donor marrow cells, Day 13
  number of surviving mice: 0
[4]; 5 × 10^5 donor marrow cells, Day 2
  number of surviving mice: 3
[4]; 5 × 10^5 donor marrow cells, Day 3
  number of surviving mice: 3
[4]; 5 × 10^5 donor marrow cells, Day 4
  number of surviving mice: 3
[4]; 5 × 10^5 donor marrow cells, Day 5
  number of surviving mice: 3
[4]; 5 × 10^5 donor marrow cells, Day 6
  number of surviving mice: 3
[4]; 5 × 10^5 donor marrow cells, Day 7
  number of surviving mice: 3
[4]; 5 × 10^5 donor marrow cells, Day 8
  number of surviving mice: 2
[4]; 5 × 10^5 donor marrow cells, Day 9
  number of surviving mice: 2
[4]; 5 × 10^5 donor marrow cells, Day 10
  number of surviving mice: 2
[4]; 5 × 10^5 donor marrow cells, Day 11
  number of surviving mice: 2
[4]; 5 × 10^5 donor marrow cells, Day 12
  number of surviving mice: 2
[4]; 5 × 10^5 donor marrow cells, Day 13
  number of surviving mice: 2
[4]; 5 × 10^5 donor marrow cells, Day 19
  number of surviving mice: 2
[4]; 11 Gy, 5 mg/kg IP bid, 1 × 10^5 donor marrow cells, Day 1
  number of surviving mice: 3
[4]; 11 Gy, 5 mg/kg IP bid, 2 × 10^5 donor marrow cells, Day 1
  number of surviving mice: 3
[4]; 11 Gy, 5 mg/kg IP bid, 5 × 10^5 donor marrow cells, Day 1
  number of surviving mice: 3
[4]; mouse, in vivo
  survival of transplanted mice: promoted survival of mice receiving a bone marrow transplant
[5]; 7 Gy, 5 mg/kg IP daily for 7 doses, Day 5
  number of mice surviving: 3
[5]; 7 Gy, Day 6
  number of mice surviving: 3
[5]; 7 Gy, Day 7
  number of mice surviving: 3
[5]; 7 Gy, Day 8
  number of mice surviving: 3
[5]; 7 Gy, Day 9
  number of mice surviving: 3
[5]; 7 Gy, Day 10
  number of mice surviving: 3
[5]; 7 Gy, Day 11
  number of mice surviving: 3
[5]; 7 Gy, Day 12
  number of mice surviving: 3
[5]; 7 Gy, Day 13
  number of mice surviving: 3
[5]; 7 Gy, Day 14
  number of mice surviving: 3
[5]; 7 Gy, Day 15
  number of mice surviving: 3
[5]; 7 Gy, Day 25 (cell wraps: Looks / Healthy)
  appearance of surviving mice: Looks
[5]; 9 Gy, 5 mg/kg IP daily for 7 doses, Day 5
  number of mice surviving: 3
[5]; 9 Gy, Day 6
  number of mice surviving: 3
[5]; 9 Gy, Day 7
  number of mice surviving: 3
[5]; 9 Gy, Day 8
  number of mice surviving: 3
[5]; 9 Gy, Day 9
  number of mice surviving: 3
[5]; 9 Gy, Day 10
  number of mice surviving: 3
[5]; 9 Gy, Day 11
  number of mice surviving: 3
[5]; 9 Gy, Day 12
  number of mice surviving: 2
[5]; 9 Gy, Day 13
  number of mice surviving: 2
[5]; 9 Gy, Day 14
  number of mice surviving: 1
[5]; 9 Gy, Day 15
  number of mice surviving: 0
[5]; 11 Gy, 5 mg/kg 1 dose/daily for 7 days, Day 5
  number of mice surviving: 3
[5]; 11 Gy, 5 mg/kg 1 dose/daily, continuous every day, Day 5
  number of mice surviving: 3
[5]; 11 Gy, 5 mg/kg IP daily for 7 doses, Day 5
  number of mice surviving: 3
[5]; 11 Gy, 5 mg/kg, 7 days, 2 dose daily, Day 5
  number of mice surviving: 3
[5]; 11 Gy, 1 dose/daily for 7 days, Day 6
  number of mice surviving: 3
[5]; 11 Gy, 1 dose/daily for 7 days, Day 7
  number of mice surviving: 3
[5]; 11 Gy, 1 dose/daily for 7 days, Day 8
  number of mice surviving: 2
[5]; 11 Gy, 1 dose/daily for 7 days, Day 9
  number of mice surviving: 1
[5]; 11 Gy, 1 dose/daily for 7 days, Day 10
  number of mice surviving: 0
[5]; 11 Gy, 1 dose/daily, continuous every day, Day 6
  number of mice surviving: 3
[5]; 11 Gy, 1 dose/daily, continuous every day, Day 7
  number of mice surviving: 3
[5]; 11 Gy, 1 dose/daily, continuous every day, Day 8
  number of mice surviving: 3
[5]; 11 Gy, 1 dose/daily, continuous every day, Day 9
  number of mice surviving: 2
[5]; 11 Gy, 1 dose/daily, continuous every day, Day 10
  number of mice surviving: 0
[5]; 11 Gy, 7 days, 2 dose daily, Day 6
  number of mice surviving: 3
[5]; 11 Gy, 7 days, 2 dose daily, Day 7
  number of mice surviving: 3
[5]; 11 Gy, 7 days, 2 dose daily, Day 8
  number of mice surviving: 3
[5]; 11 Gy, 7 days, 2 dose daily, Day 9
  number of mice surviving: 2
[5]; 11 Gy, 7 days, 2 dose daily, Day 10
  number of mice surviving: 0
[5]; 11 Gy, Table 7, Day 6
  number of mice surviving: 3
[5]; 11 Gy, Table 7, Day 7
  number of mice surviving: 3
[5]; 11 Gy, Table 7, Day 8
  number of mice surviving: 3
[5]; 11 Gy, Table 7, Day 9
  number of mice surviving: 2
[5]; 11 Gy, Table 7, Day 10
  number of mice surviving: 0
[5]; 11 Gy, any of the dosing schedules
  longer survival than vehicle control, on average: 1 to 2 days
liver; 5 mg/kg IP bid, one mouse versus one control mouse
  serum ALT levels: ALT values are lower
liver; days 3 and 4
  hepatic mitosis versus controls: significantly increased hepatic mitosis
liver; post-operative day 2
  BrdU positive (S-phase) cells in liver: clear increase in numbers of BrdU positive cells
